Reference: patent EP4707284A1, “HETEROCYCLIC COMPOUND AND USE THEREOF” (Otsuka Pharmaceutical Co., Ltd., priority 2023, dated 2024)

Type: physicochemical
Conditions: Tris-hydrochloric acid buffer (pH 7.5) 50 mmol/L, magnesium chloride 5 mmol/L, evaluation compound 1 µmol/L, 37°C, 60 minutes, average of duplicate
Description: The conversion from the evaluation compounds to brexpiprazole in a buffer (i.e., the stability of the evaluation compounds) was evaluated.
The Example 1 compound was dissolved in acetonitrile/water (1:1, v/v) to 10 mmol/L and further diluted with acetonitrile/water (1:1, v/v) to 100 µmol/L for use.
The other Example compounds and the Reference Example 5 compound to Reference Example 7 compound were each dissolved in DMSO to 10 mmol/L and further diluted with acetonitrile to 100 µmol/L for use, except for the following compounds.
The compounds of Examples 52, 95, 96, 117, and 130 (EX 52, EX 95, EX 96, EX 117, and EX 130) were dissolved in acetonitrile/water (8:2, v/v) to 10 mmol/L and further diluted with acetonitrile to 100 µmol/L for use.
The compound of Example 97 (EX 97) was dissolved in acetonitrile/water (8:2, v/v) to 10 mmol/L and further diluted with acetonitrile/water (8:2, v/v) to 100 µmol/L for use.
The compounds of Examples 15 and 116 (EX 15 and EX 116) were dissolved in DMSO to 1 mmol/L and further diluted with acetonitrile to 100 µmol/L for use.
These evaluation compound solutions were prepared at the time of use.
The reaction was conducted by preparing each reaction solution such that the final concentration of each component was as follows. The test was conducted in duplicate.
For the compounds of Examples 1 to 8, 10 to 19, 26 to 27, 37, 50, 87 to 89, 91, 116, 121, 123, 150, and 151 (EX 1 to EX 8, EX 10 to EX 19, EX 26 to EX 27, EX 37, EX 50, EX 87 to EX 89, EX 91, EX 116, EX 121, EX 123, EX 150, and EX 151), and the compounds of Reference Examples 5 to 7 (REX 5 to REX 7), the reaction solution without the evaluation compound (198 µl) was pre-incubated at 37°C for 3 minutes, and then each of the evaluation compound solutions (2 µl) was added and stirred; thereafter, the reaction was started at 37°C. At 0 minutes or 60 minutes after the start of the reaction, the reaction was stopped by adding and stirring a reaction stop solution (1000 µl) composed of acetonitrile/isopropanol (4:1, v/v) containing internal standard substances. However, the 0-minute reaction sample (198 µl) was prepared by adding the evaluation compound (2 µl) after adding the reaction stop solution (1000 µl). The samples after stopping the reaction were used as the measurement samples. Calibration curve samples with the same composition were prepared (final concentrations of the evaluation compounds and brexpiprazole: 0.01, 0.1, and 1 µmol/L, with the proviso that for the evaluation compounds only, the 0-minute reaction samples were also used as calibration curve samples for 1 µmol/L).
For the compounds of Examples 24 to 25, 28 to 29, 32 to 36, 40 to 49, 51 to 60, 62 to 64, 66 to 77, 80 to 86, 90, 92 to 111, 113, 115, 117 to 120, 122, 124 to 130, 132 to 147, and 152 to 160 (EX 24 to EX 25, EX 28 to EX 29, EX 32 to EX 36, EX 40 to EX 49, EX 51 to EX 60, EX 62 to EX 64, EX 66 to EX 77, EX 80 to EX 86, EX 90, EX 92 to EX 111, EX 113, EX 115, EX 117 to EX 120, EX 122, EX 124 to EX 130, EX 132 to EX 147, and EX 152 to EX 160), the reaction solution without the evaluation compound (148.5 µl) was pre-incubated at 37°C for 3 minutes, and then each of the evaluation compound solutions (1.5 µl) was added and stirred; thereafter, the reaction was started at 37°C. At 0 minutes or 60 minutes after the start of the reaction, the reaction was stopped by adding and stirring a reaction stop solution (600 µl) composed of acetonitrile/isopropanol (4:1, v/v) containing internal standard substances. However, the 0-minute reaction sample (148.5 µl) was prepared by adding the evaluation compound (1.5 µl) after adding the reaction stop solution (600 µl). The samples after stopping the reaction were used as the measurement samples. […]

Question: What does the source list for `O=c1ccc2ccc(OCCCC[N+]3(COP(=O)([O-])O)CCN(c4cccc5sccc45)CC3)cc2[nH]1` [EX 1, (4-(benzo[b]thiophen-4-yl)-1-((4-((2-oxo-1,2-dihydroquinolin-7-yl)oxy)butyl)piperazin-1-ium-1-yl)methyl hydrogen phosphate]?
Answer: Concentration of brexpiprazole formed: 0 nM; Concentration of evaluation compound decreased: 0 nM

Question: Which “Concentration of brexpiprazole formed” value does the source give for `O=c1ccc2ccc(OCCCC[N+]3(COP(=O)([O-])OCCCCO)CCN(c4cccc5sccc45)CC3)cc2[nH]1` [EX 10, (4-(benzo[b]thiophen-4-yl)-1-(4-((2-oxo-1,2-dihydroquinolin-7-yl)oxy)butyl)piperazin-1-ium-1-yl)methyl (4-hydroxybutyl) phosphate] here?
Answer: 0 nM

Question: What about the “Concentration of evaluation compound decreased” value of the same compound?
Answer: -20 nM

Question: With `O=c1ccc2ccc(OCCCC[N+]3(COP(=O)([O-])OCCCCCCCCO)CCN(c4cccc5sccc45)CC3)cc2[nH]1` [EX 11, (4-(benzo[b]thiophen-4-yl)-1-(4-((2-oxo-1,2-dihydroquinolin-7-yl)oxy)butyl)piperazin-1-ium-1-yl)methyl (8-hydroxyoctyl) phosphate] as the compound, how does the “Concentration of brexpiprazole formed” value read?
Answer: 0 nM

Question: And the “Concentration of evaluation compound decreased” value?
Answer: 30 nM

Question: With `COCCOP(=O)([O-])OC[N+]1(CCCCOc2ccc3ccc(=O)[nH]c3c2)CCN(c2cccc3sccc23)CC1` [EX 12, (4-(benzo[b]thiophen-4-yl)-1-(4-((2-oxo-1,2-dihydroquinolin-7-yl)oxy)butyl)piperazin-1-ium-1-yl)methyl (2-methoxyethyl) phosphate] as the compound, how does the “Concentration of brexpiprazole formed” value read?
Answer: 0 nM

Question: And the “Concentration of evaluation compound decreased” value?
Answer: 20 nM

Question: What does the source list for `CC(C)C(=O)OCOP(=O)([O-])OC[N+]1(CCCCOc2ccc3ccc(=O)[nH]c3c2)CCN(c2cccc3sccc23)CC1` [EX 24]?
Answer: Concentration of brexpiprazole formed: 0 nM; Concentration of evaluation compound decreased: -110 nM

Question: Which results are given for `CC(C)(C)C(=O)OCOP(=O)([O-])OC[N+]1(CCCCOc2ccc3ccc(=O)[nH]c3c2)CCN(c2cccc3sccc23)CC1` [EX 25]?
Answer: Concentration of brexpiprazole formed: 0 nM; Concentration of evaluation compound decreased: -10 nM

Question: With `CCCCCCCC(=O)OC(C)OP(=O)([O-])OC[N+]1(CCCCOc2ccc3ccc(=O)[nH]c3c2)CCN(c2cccc3sccc23)CC1` (stereo not shown) [EX 26] as the compound, how does the “Concentration of brexpiprazole formed” value read?
Answer: 0 nM

Question: What about the “Concentration of evaluation compound decreased” value of the same compound?
Answer: 50 nM

Question: With `CCCCCCCC(=O)OCOP(=O)([O-])OC[N+]1(CCCCOc2ccc3ccc(=O)[nH]c3c2)CCN(c2cccc3sccc23)CC1` [EX 27] as the compound, how does the “Concentration of brexpiprazole formed” value read?
Answer: 0 nM

Question: What about the “Concentration of evaluation compound decreased” value of the same compound?
Answer: 0 nM

Question: With `COCCC(=O)OCOP(=O)([O-])OC[N+]1(CCCCOc2ccc3ccc(=O)[nH]c3c2)CCN(c2cccc3sccc23)CC1` [EX 28] as the compound, how does the “Concentration of brexpiprazole formed” value read?
Answer: -10 nM

Question: What about the “Concentration of evaluation compound decreased” value of the same compound?
Answer: -70 nM

Question: Which results are given for `CCOCCC(=O)OCOP(=O)([O-])OC[N+]1(CCCCOc2ccc3ccc(=O)[nH]c3c2)CCN(c2cccc3sccc23)CC1` [EX 29]?
Answer: Concentration of brexpiprazole formed: 0 nM; Concentration of evaluation compound decreased: -10 nM

Question: What does the source list for `CCOC(=O)CC(C)(C)CC(=O)OCOP(=O)([O-])OC[N+]1(CCCCOc2ccc3ccc(=O)[nH]c3c2)CCN(c2cccc3sccc23)CC1` [EX 32]?
Answer: Concentration of brexpiprazole formed: 0 nM; Concentration of evaluation compound decreased: 10 nM

Question: Which “Concentration of brexpiprazole formed” value does the source give for `COCCOC(=O)OCOP(=O)([O-])OC[N+]1(CCCCOc2ccc3ccc(=O)[nH]c3c2)CCN(c2cccc3sccc23)CC1` [EX 33] here?
Answer: 0 nM

Question: And the “Concentration of evaluation compound decreased” value?
Answer: 0 nM

Question: What does the source list for `COCCOCCOC(=O)OCOP(=O)([O-])OC[N+]1(CCCCOc2ccc3ccc(=O)[nH]c3c2)CCN(c2cccc3sccc23)CC1` [EX 34]?
Answer: Concentration of brexpiprazole formed: 0 nM; Concentration of evaluation compound decreased: 10 nM

Question: What does the source list for `COCCOCCOCCOC(=O)OCOP(=O)([O-])OC[N+]1(CCCCOc2ccc3ccc(=O)[nH]c3c2)CCN(c2cccc3sccc23)CC1` [EX 35]?
Answer: Concentration of brexpiprazole formed: 0 nM; Concentration of evaluation compound decreased: -20 nM

Question: Which “Concentration of brexpiprazole formed” value does the source give for `COCCCCOC(=O)OCOP(=O)([O-])OC[N+]1(CCCCOc2ccc3ccc(=O)[nH]c3c2)CCN(c2cccc3sccc23)CC1` [EX 36] here?
Answer: 0 nM

Question: What about the “Concentration of evaluation compound decreased” value of the same compound?
Answer: -40 nM

Question: What does the source list for `CCCCCCCCOP(=O)([O-])OC[N+]1(CCCCOc2ccc3ccc(=O)[nH]c3c2)CCN(c2cccc3sccc23)CC1` [EX 37]?
Answer: Concentration of brexpiprazole formed: 0 nM; Concentration of evaluation compound decreased: 60 nM

Question: With `CC(O)CCOP(=O)([O-])OC[N+]1(CCCCOc2ccc3ccc(=O)[nH]c3c2)CCN(c2cccc3sccc23)CC1` (stereo not shown) [EX 40] as the compound, how does the “Concentration of brexpiprazole formed” value read?
Answer: 0 nM

Question: And the “Concentration of evaluation compound decreased” value?
Answer: 60 nM

Question: Which “Concentration of brexpiprazole formed” value does the source give for `CC(C)(O)CCOP(=O)([O-])OC[N+]1(CCCCOc2ccc3ccc(=O)[nH]c3c2)CCN(c2cccc3sccc23)CC1` [EX 41] here?
Answer: 0 nM

Question: And the “Concentration of evaluation compound decreased” value?
Answer: 70 nM

Question: For `O=c1ccc2ccc(OCCCC[N+]3(COP(=O)([O-])OC/C=C/CO)CCN(c4cccc5sccc45)CC3)cc2[nH]1` [EX 42], which “Concentration of brexpiprazole formed” value is on record?
Answer: 0 nM

Question: What about the “Concentration of evaluation compound decreased” value of the same compound?
Answer: 30 nM

Question: Which “Concentration of brexpiprazole formed” value does the source give for `O=c1ccc2ccc(OCCCC[N+]3(COP(=O)([O-])OC/C=C\CO)CCN(c4cccc5sccc45)CC3)cc2[nH]1` [EX 43] here?
Answer: 0 nM

Question: What about the “Concentration of evaluation compound decreased” value of the same compound?
Answer: 120 nM

Question: With `O=c1ccc2ccc(OCCCC[N+]3(COP(=O)([O-])OCCCCCCO)CCN(c4cccc5sccc45)CC3)cc2[nH]1` [EX 44] as the compound, how does the “Concentration of brexpiprazole formed” value read?
Answer: 0 nM

Question: What about the “Concentration of evaluation compound decreased” value of the same compound?
Answer: -50 nM

Question: With `O=c1ccc2ccc(OCCCC[N+]3(COP(=O)([O-])OCCCCCCCO)CCN(c4cccc5sccc45)CC3)cc2[nH]1` [EX 45] as the compound, how does the “Concentration of brexpiprazole formed” value read?
Answer: 0 nM

Question: What about the “Concentration of evaluation compound decreased” value of the same compound?
Answer: 70 nM

Question: Which “Concentration of brexpiprazole formed” value does the source give for `O=c1ccc2ccc(OCCCC[N+]3(COP(=O)([O-])OCCCCCCCCCO)CCN(c4cccc5sccc45)CC3)cc2[nH]1` [EX 46] here?
Answer: 0 nM

Question: And the “Concentration of evaluation compound decreased” value?
Answer: 40 nM

Question: With `O=c1ccc2ccc(OCCCC[N+]3(COP(=O)([O-])OCC4(CO)CC4)CCN(c4cccc5sccc45)CC3)cc2[nH]1` [EX 47] as the compound, how does the “Concentration of brexpiprazole formed” value read?
Answer: 0 nM

Question: What about the “Concentration of evaluation compound decreased” value of the same compound?
Answer: 0 nM

Question: Which “Concentration of brexpiprazole formed” value does the source give for `CC(C)(CO)COP(=O)([O-])OC[N+]1(CCCCOc2ccc3ccc(=O)[nH]c3c2)CCN(c2cccc3sccc23)CC1` [EX 48] here?
Answer: 0 nM

Question: What about the “Concentration of evaluation compound decreased” value of the same compound?
Answer: -30 nM

Question: Which “Concentration of brexpiprazole formed” value does the source give for `COCCCOP(=O)([O-])OC[N+]1(CCCCOc2ccc3ccc(=O)[nH]c3c2)CCN(c2cccc3sccc23)CC1` [EX 49] here?
Answer: 0 nM

Question: What about the “Concentration of evaluation compound decreased” value of the same compound?
Answer: 50 nM
